Test results published in US5519115A, “Reverse antimicrobial peptides” (priority 1993, dated 1996).
Where two headings read alike, the source gives them in different places. Ends that are not written are not given here.

How the values were obtained:
isolated chloroplasts = experiment: Oxygen evolution bioassay, phytotoxicity (isolated chloroplasts); type: cell-based, Spinach (Spinacia oleracea L. var. Melody); details: for inhibition of oxygen evolution: 8 uM
Protocol: The following procedure for the preparation of chloroplasts to use in an oxygen electrode is similar to that of Gupta et al., "Development and Use of Chlorotetracycline Fluorescence as a Measurement Assay of Chloroplast Envelope-Bound Mg^2+, "Plant Physiol. 89, (1989) 753-761. Spinach (Spinacia oleracea L. var. `Melody`) was grown in 1:1 peat/vermiculite potting mix in a growth chamber with a 10 hour light period. The chamber temperature was maintained at 21° C. (day) and 16° C. (night) during the growth period. All plants were used for chloroplast isolation after 6-8 weeks of growth.
In order to obtain an enriched chloroplast fraction, about 12 g of deribbed spinach leaves were thoroughly washed and surface dried. The leaves were then cut into small pieces, each about 1/2 inch square, and were placed in a small blender jar containing 50 mL of chilled homogenization medium (0.33M sorbitol, 50 mM Hepes-NaOH, pH 6.8, 2mM Na2 EDTA, 1 mM MnCl2, 1 mM MgCl2). The tissue was blended twice for three second intervals on high speed in a blender. The resulting homogenate was filtered through four layers of cheesecloth and two layers of miracloth (Behring Diagnostics, La Jolla, Calif.) into two chilled 30 mL glass centrifuge tubes. The filtered solution was centrifuged for 1.0 minute at 750 g (2,200 RPM) in a JS 13.1 swinging bucket rotor in a Beckman J2-21M centrifuge (Beckman Instruments, Inc., Somerset, N.J.). The supernatant was then decanted and the pellet was gently resuspended by swirling at 0° C. About 15 mL of homogenization medium was added to each tube of chloroplasts before the chloroplasts were layered onto a 40% Percoll gradient (6 mL Percoll, 9 mL homogenization medium, and 0.03 g bovine serum albumin) in a 30 mL glass centrifuge tube. These tubes were centrifuged for 4.0 minutes at 2500 g (4000 RPM) in a JS 13.1 swinging bucket rotor in a Beckman J2-21M centrifuge. The supernatant was removed and the resulting pellet was resuspended in a small amount of homogenization medium (about 500 microliters).
Plastid concentration was generally expressed on a chlorophyll basis. Chlorophyll was determined by the method of Arnon "Copper Enzymes in Isolated Chloroplasts, Polyphenol Oxidase in Beta Vulgaris," Plant Physiol. 24, (1949) 1-15. About 50 microliters of chloroplast stock suspension was added to 10 mL of 80% acetone and this solution was incubated 5.0 minutes in the dark and then centrifuged for 5.0 minutes at 500 g (1630 RPM) in a Beckman GP centrifuge. The absorbance of the acetone-chloroplast solution was monitored at 645 nm, at 663 nm and at 730 nm. The chlorophyll concentration was then calculated as 10× [(absorbance at 645 nm×20.2)+(absorbance at 663 nm×8.02)--background at 730 nm]. This gave the amount of chlorophyll in micrograms for the original 50 microliters of chloroplasts. The concentration of chloroplasts was then adjusted with homogenization medium so that 50 microliters of suspension contained 26 micrograms of chlorophyll. These chloroplasts were only active for 11/2 to 2 hours and were therefore used immediately.
An oxygen electrode (Hansatech Instruments Ltd., Kings Lynn, Norfolk, England) was used to measure oxygen evolution from isolated chloroplasts. For a detailed discussion of the method see, D. Walker, "The Use of the Oxygen Electrode and Fluorescence Probes in Simple Measurements of Photosynthesis," supra. A saturated KCl solution was placed in the electrode well and a one-inch square of rolling paper or lens paper was placed in to the electrode well so that it soaked up KCl and formed an ionic bridge. A one-inch square of teflon membrane was then prepared, being careful not to touch its surface, and was placed over the soaked paper. Using the membrane applicator, an O ring was placed over the head of the electrode, thereby securing paper and membrane across the electrode. The CB-1D control box was turned on and the system was allowed to warm up approximately one hour before calibration. […]

plant protease [1] = details: cited from earlier work
[2] = test system: maize BMS suspension cells; experiment: Whole cell phytotoxicity screening (oxygen consumption); type: cell-based
Protocol: Oxygen consumed by maize BMS suspension cells were determined as an indication of the relative phytotoxicity of antimicrobial peptides. Black Mexican Sweet (BMS) cell suspension cultures were maintained by transferring 25 mls of cell culture to 25 mls of fresh MSA2D media (4.4 g bottle of Murashige and Skoog basal salt mixture Sigma catalog No. M5524, 100 mg myoinositol, 150 mg L-asparagine, 30 g sucrose, 20 mls of 0.1 mg/ml 2.4-dichlorophenoxy acetic acid stock and 1 ml of vitamin stock consisting of 25 mg/100 ml calcium pantothenate, 50 mg/100 ml pyridoxine, 50 mg/100 ml nicotinic acid, 50 mg/100 ml thiamine, 200 mg/100 ml glycine all added to 1 liter sterile distilled water followed by autoclaving 25 minutes at 121° C.) in a capped sterile 250 ml Erlenmeyer flask 3 days after culture initiation. Four days later 12.5 mls of the cell culture was transferred to 35.5 mls of fresh MSA2D media. Cultures were continuously maintained by alternating 3 and 4 day transfer regimes. The cultures were shaken in low light at 125 RPM at room temperature. For oxygen consumption experiments cells were used one day after transferring to fresh media. Cells were poured into a sterile 50 ml centrifuge tube and allowed to settle by gravity. Spent media was drawn off and 7.8 mls of fresh MSA2D media was added per gram of settled cells. The cell stock solution was placed on a shaker for continued aeration and was used in all assays conducted on that day.
An oxygen electrode (Hansatech Limited, Kings' Lynn, Norfolk, England) was inspected to insure that no corrosion was present. A saturated KCl solution was then placed in the clean electrode well. A 1 inch square of rolling paper or lens paper was cut and placed over the well so that the edges of the paper soaked up KCl and formed an ionic bridge. A 1 inch square of teflon membrane was cut, being careful not to touch the surface, and placed over the soaked rolling paper. A membrane applicator was used to press an O-ring over the head of the electrode thereby securing paper and membrane across the electrode. The CB-1D control box (Hansatech Limited) was turned on and allowed to warm up approximately one hour before calibration. The CB-1D control box was set at 1X output. A chart recorder was set at 0.05 V input with a chart speed of 3 cm/min. A circulating water bath set at 20° C. was hooked up to the electrode chamber. The entire system was calibrated using air-saturated water obtained by vigorously shaking a wash bottle of distilled water. Using the gain switch, the output was set so that the pen on the chart recorder was at the maximum chart height (900=top). The oxygen concentration of air-saturated water was assumed to be 276 nmole/mL at 20° C. All air was removed from the water in the cuvette by adding 2-3 mg of sodium dithionite. The pen on the chart recorder responded by moving to the bottom of the graph. If the slope of the line was unstable, the membrane and rolling paper were removed and the set-up steps were repeated.
For a 1 mL assay, 888 uL water and 62.5 uL BMS stock cell suspension were added to the oxygen electrode cuvette. The final concentration of cells used in the assay was approximately 8 mg/mL. The rate of oxygen consumed by the cells was monitored on the chart recorder for 3 minutes. Fifty microliters of peptide was then added to the cuvette using a Hamilton syringe. (Peptide stocks were adjusted to deliver the desired concentration in a 50 uL volume). Oxygen consumption was monitored for 5 minutes after peptide addition. The time period for the complete test was 8 minutes.
The rate of suppression of oxygen consumption after the addition of a peptide was determined by comparing the slope of the line before the addition of the peptide to the slope of the line at a set time point after addition of the peptide. The rate of oxygen consumption after addition of the peptide was divided by the initial control rate of oxygen consumption and then multiplied by 100. […]

[3] = test system: extracellular plant proteases; experiment: in vitro; details: pH 7.4
Source text: In an attempt to determine the sensitivity of peptides to extracellular plant proteases, and to determine the site or sites of processing by these proteases, a system was designed to obtain extracellular fluid from leaves of maize, tobacco, or potato and to use these to test the stability of various peptides.
Extracellular fluid (ECF) was obtained by cutting interveinal pieces from tobacco leaf after they were rinsed in deionized water. The segments were submerged in water in a vacuum desicator and vacuum was applied for 5 to 10 min. The vacuum was released slowly, the leaves were blotted dry and 4 to 5 pieces were rolled and placed in a 50 mL disposable syringe barrel cut down so as to be able to fit in a swinging bucket centrigue rotor. The syringe barrel was placed in a 50 mL screw cap conical centrifuge tube and centrifuged in a swinging bucket rotor at 600×g for 30 min. The liquid was recovered and centrifuged in a microfuge for 10 min. The supernatant was stored at -80° C. and used in subsequent experiments.
To test the stability of a peptide to extracellular plant proteases, 10 ug of the peptide (1 mg/mL) was incubated with 10% extracellular fluid in 50 mM Tris HCL buffer, pH 7.4. The peptides tested were prepared or obtained as described in Examples 6, 13, and 14. After incubation at 37° C. for 0, 15, 30, 45 and 60 min the proteases were inactivated by the addition of trifluoroacetic acid (TFA) to 1% final concentration (v/v).
Peptides were analyzed by reverse phase chromatography on a 2.1×30 mm POROS R/H column (PerSpective Biosystems, Cambridge, Mass.) using a 5 to 35% acetonitrile gradient in 0.1% TFA on a Hewlett-Packard HP1090 high pressure liquid chromatograph (Hewlett Packard, Avondale, Pa.) at 3.5 mL/min.

plant protease [4] = test system: plant protease
[5] = Phytotoxicity (method not given)
[6] = 10% extracellular fluid from tobacco leaf

CGIGKFLREAGKFGKAFVGEIMKP [Peptide No. 13, Cys [Arg 7, Glu 8, Pro 23] Mag 1]
inhibition of oxygen evolution (isolated chloroplasts): 100%

GIGKFLHEAKKFGKAFVGEIMNS [Peptide No. 10, [Glu 8] Mag 2]
decrease in the susceptibility to proteolytic degradation (plant protease [1]): ≥ 50%

GIGKFLHSAGKFGKAFVGEIMKS [Peptide No. 2, Magainin 1]
Percent Inhibition of Oxygen Consumption Caused by Addition of 4 μM Peptide [2]: 52 +/- 6% | phytotoxic effect on whole cells, oxygen consumption (in words) [2]: greater overall phytotoxic effect on whole cells

GIGKFLHSAKKFGKAFVGEIMNS [Peptide No. 1, Magainin 2]
phytotoxic effect on whole cells, oxygen consumption (in words) ([2]; Table V): much higher level of inhibition of oxygen consumption | remaining at 0.25 h [3, 6]: 23% | remaining at 0.5 h [3, 6]: 18% | remaining at 0.75 h [3, 6]: 5.3% | remaining at 1 h [3, 6]: 0.5% | Percentage of Area Under the Parent Peak ([3]; Time 0 min, 10% extracellular fluid, 37° C.): 100 Percentage

GIGKFLHSAKKFGKAFVGEIMNSGGGGGGIGKFLHSAKKFGKAFVGEIMNS [Peptide No. 6, Mag 2 dimer (bridged)]
inhibition of oxygen evolution (isolated chloroplasts): 100%

GIGKFLHSAKKFGKAFVGEIMNSGIGKFLHSAKKFGKAFVGEIMNS [Peptide No. 5, (Mag 2)-(Mag 2)]
inhibition of oxygen evolution (isolated chloroplasts): 100% | Percent Inhibition of Oxygen Consumption Caused by Addition of 4 μM Peptide [2]: 72 +/- 13% | phytotoxic effect on whole cells, oxygen consumption (in words) [2]: no significantly different effect on phytotoxicity

KWKLFKKIEKVGQNIRDGIIKAGPAVAVVGQATQIAK-NH2 [Peptide No. 3, Cecropin A-NH2, reference compound]
inhibition of oxygen evolution (isolated chloroplasts): 100%

MGIGKFLREAGKFGKAFVGEIMKGIGKFLREAGKFGKAFVGEIMKP [Peptide No. 15, Head-to-tail peptide Nos. 11 and 12***]
inhibition of oxygen evolution (isolated chloroplasts): 100%

SNMIEGVFAKGFKKASHLFKGIG [Peptide No. 8, Reverse Magainin 2]
phytotoxicity effect compared to native Magainin 2 (in words) (isolated chloroplasts): extremely low Phytotoxicity effect | Percent Inhibition of Oxygen Consumption Caused by Addition of 4 μM Peptide [2]: 16 +/- 12%

SWLSKTAKKLENSAKKRISEGIAIAIQGGPR [Peptide No. 4, P1]
phytotoxic effect on whole cells, oxygen consumption (in words) ([2]; Table V): greater overall phytotoxic effect on whole cells | susceptibility to proteolysis (in words) (plant protease [4]): very low | phytotoxicity (in words) [5]: very low
